In a melting point compilation (Tetko et al.; mined from patent text by program, amines drawn as free bases though some values may be those of a salt) one finds melting point data, which are given here for 63 molecules.

Consider `O=C(COc1cccc(C(=O)O)c1)NCCNC(=O)COc1cccc(C(=O)O)c1`, for which the melting point is 282 °C.

Regarding `CC(C)CNC(=O)c1ccc(-c2ccc3nnn(Cc4ccc5ncccc5c4)c3n2)cc1F`, the melting point lay within 158 to 160 °C.

Take `O=C(c1ccc(F)cc1)C1CCN(CCCO)CC1`: the melting point lay in the range of 107 to 109 °C.

Consider `Fc1cccc2c1CN(NC1=NCCN1)C2`, for which the melting point lay in the range of 168 to 170 °C.

Molecule `COc1cc(OC)nc(OC(C(=O)O)C(OC)(c2ccccc2)c2ccccc2)n1` (stereo not drawn) yielded a melting point of 16 to 17 °C.

As for `OC1(c2c[nH]c(-c3ccc(F)cc3)c2-c2ccncc2)CCNCC1`, the melting point lay within 197 to 199 °C.

The molecule `CC(=O)c1ccc(-c2ccccc2[N+](=O)[O-])cc1` yielded a melting point of 106 to 109 °C.

As for `Nc1ncnc2c1ncn2CCCN1CCC(NC(=O)c2ccccc2)CC1`, the melting point fell in the range of 213 to 214 °C.

`CCOC(=O)NC(=N)c1ccc(N2CCN(c3ccc(CCC(=O)OC)cc3)S2(=O)=O)cc1` showed a melting point of more than 275 °C.

On to `CN(C(=O)CCSC(c1ccccc1)(c1ccccc1)c1ccccc1)c1nnc(-c2cccnc2)s1`, for which the melting point was 60 to 75 °C.

`COc1ccc(Cl)cc1C(=O)NC1COc2cc(C)ccc2C1` (stereo not drawn) showed a melting point of 97 °C.

In the case of `CC(C)=CCCC(C)=CCS(=O)c1ccc2ccccc2c1` (stereo not drawn), the melting point lay within 74 to 76 °C.

Regarding `CSc1ccc(Cn2nc(-c3ccc(SC)cc3)c(-c3ccc(F)cc3)cc2=O)cc1`, the melting point came to 116 °C.

`COc1cc(C(=O)N2CCC(CCN3CCC(Nc4nc5ccccc5n4Cc4nccn4Cc4ccccc4)CC3)(c3ccc(F)cc3)C2)cc(OC)c1OC` (stereo not drawn): the melting point lay in the range of 95 to 100 °C.

In turn, `CCc1nn2c(-c3ccc(Cl)cc3Cl)cccc2c1[N+](=O)[O-]` displayed a melting point of 147 to 149 °C.

`N#CCOc1cc(C(F)(F)F)nc2ccc(-c3cc4ccccc4o3)cc12` returned a melting point of 174 to 176 °C.

`Cc1nc2c(C=Cc3ccccc3)cccn2c1N=O` displayed a melting point of 158 to 160 °C.

As to `CC(C)NC(=O)c1c(NC(=O)c2cc(C(F)(F)F)nn2-c2ncccc2Cl)c(C#N)cc2cn[nH]c12`, the melting point lay in the range of 226 to 229 °C.

`CC(C)(C)OC(=O)NCCCCC(=O)NCCC(=O)O` returned a melting point of 70 °C.

`CCn1cc(C(F)(F)F)c(=O)[nH]c1=O` returned a melting point of 259 to 260 °C.

On to `Cc1ccc(C(=O)[C@@H]2[C@@H](C)CCCC2(C)C)cc1Cl`, for which the melting point fell in the range of 59 to 60 °C.

Molecule `COc1cc(Nc2nccc(-c3ccc(C#N)cc3)n2)cc(OC)c1OC` registered a melting point of 183 °C.

In turn, `CCC[C@H](N[C@@H](C)C(=O)O)C(=O)OCC` showed a melting point of 153 to 154 °C.

As for `COc1ccc(N)c(C2OCCO2)c1OC`, the melting point fell in the range of 78 to 80 °C.

In turn, `Cc1c(C)c2c(c(C)c1O)C(O)CC(C)(COc1ccc(CC3SC(=O)NC3=O)cc1)O2` (stereo not drawn) showed a melting point of 102 to 118 °C.

In the case of `O=C(O)c1ccc(C2OC2C(=O)c2ccccc2)cc1` (stereo not drawn), the melting point fell in the range of 170 to 172 °C.

For the molecule `COC(=O)c1ccccc1-c1cc(-c2ccc(Cl)cc2)on1`, the melting point was in the range of 85 to 86 °C.

`CCCC(=O)Nc1n[nH]c2cc(Cl)c(-c3ccc(CC)cc3)cc12` gave a melting point of 240 °C.

For `COc1cc(Nc2c(C#N)cnc3cc(N4CCC(N5CCCC5)CC4)c(OC)cc23)c(Cl)cc1Cl`, the melting point fell in the range of 225 to 227 °C.

Consider `C[C@H](NC(=O)c1c[nH]c2ncc(C3CC3)nc12)C(C)(C)CS(C)(=O)=O`, for which the melting point lay within 232 to 234 °C.

Molecule `CC(Oc1cccc2c(Oc3ccc(C(F)(F)F)cc3F)cccc12)C(=O)O` (stereo not drawn) yielded a melting point of 166 °C.

With `CCOC(=O)c1cnn2c1c(O)nc1ccccc12`, the melting point lay in the range of 249 to 251 °C.

On to `CCOC(=O)Cn1c(=O)oc2c(O)cccc21`, for which the melting point was in the range of 150 to 152 °C.

`Cc1c(NC(=O)c2ccc(-c3ccc(Cl)s3)cc2)ccc2cc(CN3CCCCC3)cnc12` registered a melting point of 212 to 213 °C.

`O=C(NO)[C@H]1[C@H](O)CCN1C(=O)c1ccc(OC(F)(F)F)cc1` registered a melting point of 64 to 65 °C.

Molecule `Cc1cc(CNC(=O)c2ccnc(N3CCN(Cc4ccc(F)cc4)C3=O)c2)nn1C` displayed a melting point of 150 to 152 °C.

`Cc1oc(-c2ccco2)nc1COc1ccc(CCCn2ccnc2)cc1` returned a melting point of 89 to 90 °C.

`CNc1ccc(OC)cc1[N+](=O)[O-]` registered a melting point of 93 to 94 °C.

For the molecule `COc1cc(C)nc2nc(S(=O)(=O)Nc3c(Cl)cccc3Cl)nn12`, the melting point was 214 to 215 °C.

As to `CCC(Cc1ccccc1)(NC(=O)CN)c1ccccc1` (stereo not drawn), the melting point was 108 to 110 °C.

The molecule `COc1ccc(-n2nc(C(F)(F)F)cc2OCN2C(=O)c3c(C(C)C)cc(OC)cc3S2(=O)=O)cc1` registered a melting point of 111 to 113 °C.

For the molecule `Cn1cc(-c2ccccc2)c(=O)c(-c2cccc(OC(F)(F)C(F)F)c2)c1`, the melting point lay within 119 to 121 °C.

Take `CC(C)C1(c2ccccc2OCCCCBr)C(=O)N(C)c2ccccc21` (stereo not drawn): the melting point was in the range of 98 to 100 °C.

The molecule `Cc1ccccc1CNc1ncnc2c1ncn2C1OC(CO)C(O)C1O` (stereo not drawn) yielded a melting point of 162 to 164 °C.

Consider `O=C(O)CCCCCCCNS(=O)(=O)c1cccc(Cl)c1`, for which the melting point fell in the range of 85 to 86 °C.

As to `CON(C)C(=O)c1cc(Cl)nc(Cl)c1`, the melting point fell in the range of 69 to 70 °C.

In the case of `CC1=NOC(c2c(S(C)(=O)=O)ccc(C(=O)O)c2Cl)C1` (stereo not drawn), the melting point amounted to 175 °C.

As to `CCC(=O)c1ccc(OC)c(Cl)c1Cl`, the melting point fell in the range of 51 to 54 °C.

For `CCCc1c(OCCCCCOc2ccc(CCC(=O)O)cc2CCC(=O)O)ccc2c1OCCC2=O`, the melting point lay in the range of 108 to 109 °C.

For the molecule `CCOC(=O)C(=Cc1cccn2c(Br)c(C)nc12)N=[N+]=[N-]`, the melting point fell in the range of 108 to 110 °C.

The molecule `OCC1CC2CC2N1c1cncc(Br)c1` (stereo not drawn) returned a melting point of 90.4 to 93.5 °C.

Consider `CC[C@H](C)[C@H](OCc1ccccc1)[C@H]1[C@H]([N+](=O)[O-])[C@H](C2CC2)N[C@@H]1C(=O)O`, for which the melting point fell in the range of 159 to 161 °C.

In turn, `CC1(CO)Cn2cc([N+](=O)[O-])nc2O1` (stereo not drawn) yielded a melting point of 162 to 163 °C.

For the molecule `COc1cc(SCc2sc(-c3ccc(C(F)(F)F)cc3)nc2C)c(C)cc1OCC(=O)O`, the melting point lay within 165 to 167 °C.

With `CCCC(=O)Nc1cc([N+](=O)[O-])c(Sc2cccc3cnccc23)cc1N`, the melting point was in the range of 191 to 192 °C.

As to `CS(=O)(=O)c1cccc(NC(=O)c2cnn3c(C(F)F)cc(-c4ccc(C(F)(F)F)c(Cl)c4)nc23)c1`, the melting point was found to be 228 °C.

In turn, `CC(=O)Nc1ccc(C(=O)O)cc1NC(=O)CO` came in with a melting point of 214 to 215 °C.

Molecule `CN(CC(=O)O)C(=O)C(C)(C)Oc1ccc(C(=O)c2ccc(Cl)cc2)cc1` displayed a melting point of 186 to 187 °C.

On to `NC(=Nc1ccc(CCNC(=O)c2cc(N)ccc2O)cc1)c1cccs1`, for which the melting point is more than 260 °C.

In turn, `Cn1c(/C=C/C(=O)Cl)c(-c2ccccc2)c2ccccc2c1=O` showed a melting point of 213 to 215 °C.

Take `CN1CCN(C(=O)N2CCN(C(=O)OC(C)(C)C)CC2)CC1`: the melting point amounted to 130 °C.

Regarding `Nc1nc2ccccc2c2c1nc1n2C(CCl)COC1` (stereo not drawn), the melting point lay within 230 to 232 °C.

The molecule `O=CC=CC(=C(c1ccc(F)cc1)c1ccc(F)cc1)n1nnnc1-c1ccccc1` registered a melting point of 198 to 200 °C.
